Measurements: patent US8962664B2, “Selective glycosidase inhibitors and uses thereof” (Simon Fraser University, priority 2006, dated 2015)
Where “and” joins values, the source holds several entries; their conditions need not be identical. Identical values can stand only once. Entries after “also recorded” stand apart in the source; their conditions may differ.

Assays:
Assay type in all cases: in vivo, Sprague-Dawley rats
[1] = tested on: tau phosphorylation levels in brain tissue; assay: Decrease of rat brain tau phosphorylation levels (oral NAG-AE); conditions: rats, 200 mg/kg/day in drinking water for one day
Protocol: The effect of oral administration of (3aR,5R,6S,7R,7aR)-2-(ethylamino)-5-(hydroxymethyl)-5,6,7,7a-tetrahydro-3aH-pyrano[3,2-d]thiazole-6,7-diol (Compound 25, NAG-AE) on tau phosphorylation levels in brain tissue in Sprague-Dawley rats was measured. All animals were obtained from Charles-River as 5-week old healthy male Sprague-Dawley rats. Animals were given one week to acclimatize and at six weeks of age the appropriate treatment was initiated. Three animals received 200 mg/kg/day of NAG-AE in their drinking water for one day. Three additional animals received drinking water containing no NAG-AE and were used as controls. Immediately following the dosing period, all animals were sacrificed and brains were removed, stored, and processed as described in Example 29.
Western Blots. Samples were separated through 10% sodium dodecyl sulfate polyacrylamide gels (SDS-PAGE) and then transferred to nitrocellulose (Bio-Rad) membranes. Membranes were then blocked for 1 h at room temperature (RT) with 1% bovine serum albumin (BSA) in PBS containing 0.1% Tween-20 (Sigma) (PBS-T) and then subsequently probed with appropriate primary antibody delivered in 1% BSA in PBS-T for either 1 h at RT or overnight at 4° C. Membranes were then extensively washed with PBS-T, blocked again for 30 min with 1% BSA in PBS-T at RT and then probed with the appropriate HRP conjugated secondary antibody for 1 h at RT delivered in 1% BSA in PBS-T. Finally, the membranes were washed extensively and then developed with SuperSignal West Pico Chemiluminesence substrate (Pierce) and exposed to CL-XPosure Film (Pierce).
Antibodies. Mouse monoclonal α-Tau-5 which recognizes the central region of tau in a phosphorylation state independent manner was purchased from Lab Vision Corporation and used at a dilution of 1:500. Rabbit polyclonal […], and α-Tau [pS^422] recognize phosphorylated Thr-231, Ser-396, and Ser-422 respectively, and were purchased from Biosource International and used at a dilution of 1:1000. Mouse monoclonal α-O-GlcNAc (CTD110.6) which recognizes the O-GlcNAc monosaccharide modification was purchased from Covance and used at a dilution of 1:2500. Mouse monoclonal α-actin (clone AC-40) was purchased from Sigma and was used at a dilution of 1:1000.

[2] = Eight-month repeat dose toxicology study in rats: urinalysis
Protocol: (§1) The toxicological effects of repeated oral administration of (3aR,5R,6S,7R,7aR)-5-(hydroxymethyl)-2-propyl-5,6,7,7a-tetrahydro-3aH-pyrano[3,2-d]thiazole-6,7-diol (NAG-Bt) to Sprague-Dawley rats over eight months was measured. All animals were obtained from Charles-River as 5-week old healthy male Sprague-Dawley rats. Animals were given one week to acclimatize and at six weeks of age the appropriate treatment was initiated. Eight animals were fed food containing 100 mg/kg/day of NAG-Bt for eight months. Eight additional animals fed with food containing no inhibitor were used as controls. […] After four months of dosing, blood and urine samples were collected from four rats in each group.

[3] = Eight-month repeat dose toxicology study in rats: hematology (CBC) and serum chemistry
Protocol: as §1

[4] = Eight-month repeat dose toxicology study in rats: general observations and organ weights
Protocol: as §1
At the end of eight months, all animals were sacrificed and their organs removed and weighed.

[5] = rat, in vivo, po, 100 mg/kg/day

SMILES: CCNC1=N[C@@H]2[C@@H](O)[C@H](O)[C@@H](CO)O[C@@H]2S1 [NAG-AE, (3aR,5R,6S,7R,7aR)-2-(ethylamino)-5-(hydroxymethyl)-5,6,7,7a-tetrahydro-3aH-pyrano[3,2-d]thiazole-6,7-diol]
- brain tau phosphorylation at Ser-396, Thr-231, and Ser-422 ([1]; Western blot): reduction; also recorded: decreases
- global levels of O-GlcNAc in brain ([1]; Western blot): increases
- reduction of tau phosphorylation at Ser-396 ([1]; densitometry): ~3.1 fold
- reduction of tau phosphorylation at Ser-422 ([1]; densitometry): ~1.8 fold
- reduction of tau phosphorylation at Thr-231 ([1]; densitometry): ~2.7 fold

SMILES: CCCC1=N[C@@H]2[C@@H](O)[C@H](O)[C@@H](CO)O[C@@H]2S1 [NAG-Bt, (3aR,5R,6S,7R,7aR)-5-(hydroxymethyl)-2-propyl-5,6,7,7a-tetrahydro-3aH-pyrano[3,2-d]thiazole-6,7-diol]
- Urine Bilirubin [2, 5]: neg
- Urine Color [2, 5]: Yellow
- Urine Crystals [2, 5]: PO4
- Urine Crystals Amount [2, 5]: Many
- Urine Epith [2, 5]: neg
- Urine Glucose [2, 5]: neg
- Urine Gran Cast [2, 5]: neg
- Urine Hyal cast [2, 5]: neg
- Urine RBC Cast [2, 5]: neg
- Urine Urobil [2, 5]: Norm
- Urine Bacteria ([2]; rats dosed orally for 4 months at 100 mg/kg/day, individual treated rats): Mod- and neg (2×)
- ALT [3, 5]: 109.3 iu/l
- AST [3, 5]: 202.3 iu/l
- Albumin [3, 5]: 47.8 g/L
- Albumin/Globulin [3, 5]: 1.6
- Alkaline phsphatase [3, 5]: 168.3 iu/l
- Anion Gap [3, 5]: 29.8 mM
- Bilirubin total [3, 5]: 0.0 µM
- Blood Urea Nitrogen [3, 5]: 8.9 mM
- Calcium [3, 5]: 2.7 mM
- Carbon Dioxide [3, 5]: 17.5 mM
- Chloride [3, 5]: 104.5 mM
- Cholesterol [3, 5]: 2.9 mM
- Creatine Phosphokinase [3, 5]: 1324.5 iu/l
- Creatinine [3, 5]: 29.0 µM
- Gamma gt [3, 5]: 17.5 iu/l
- Globulin [3, 5]: 30.3 g/L
- Glucose [3, 5]: 2.0 mM
- Hematocrit [3, 5]: 0.5 l/l
- Hemoglobin [3, 5]: 169.5 g/L
- Lymphs % [3, 5]: 82.3%
- Mean Corp Hemoglobin [3, 5]: 16.9 pg
- Mean Corp Vol. [3, 5]: 53.3 fL
- Mean Platelet Vol [3, 5]: 9.3 fL
- Monocytes % [3, 5]: 4.3%
- Nonesterified Fatty Acids [3, 5]: 1.8 mM
- Osmolality [3, 5]: 292.9 mmol/kg
- Phosphorus [3, 5]: 2.2 mM
- Platelet cnt [3, 5]: 561.8 10e9/L
- Polys % [3, 5]: 10.8%
- Potassium [3, 5]: 5.9 mM
- RDW [3, 5]: 17.4
- Red cell cnt [3, 5]: 10.1 10^12/L
- Sodium [3, 5]: 145.8 mM
- Sorbitol Dehydrogenase [3, 5]: 22.3 iU/L
- Total Protein [3, 5]: 78.0 g/L
- Triglyceride [3, 5]: 2.7 mM
- White cell cnt [3, 5]: 3.8 1e9/l
- hematology (CBC), serum chemistry and urinalysis: differences between groups [3, 5]: no statistically significant differences
- changes in ALT, AST, bilirubin or sorbitol dehydrogenase (liver toxicity) ([3]; rats, oral 100 mg/kg/day, four months): no changes
- body weight, food consumption, water consumption, and blood glucose levels [4, 5]: no significant differences
- gross pathological abnormalities or behavioural differences [4, 5]: No gross pathological abnormalities or behavioural differences
- toxicological consequences of long-term dosing ([4]; rats, oral 100 mg/kg/day, eight months): no serious toxicological consequences
